Experimental data as given in patent US7531320B2, “Modulation of β-catenin/TCF-activated transcription” (priority 2003, dated 2009).

Tests used:
[1] = system: c-myc promoter; experiment: ChIP assay, c-myc promoter in SW480 cells; assay type: cell-based, human; conditions: 25 μM, 8 hours
Protocol: FIG. 5. COMPOUND 1 inhibits the expression of cyclin D1. • A. Cyclin D1 levels are decreased with COMPOUND 1 treatment. Western blot analysis was performed on 25 μg of SW480 whole cell lysates treated for 4, 8, or 24 hours with either 25 μM of COMPOUND 1 or control (0.5% DMSO). Immunoblotting was performed using anti-Cyclin D1 antibodies (Santa Cruz Biotechnology Inc.). • B. In vivo occupancy of cyclin D1 and c-myc promoters by CBP and p300. […] ChIP assays were performed on promoter of c-myc from SW480 cells which was treated for 8 hours with COMPOUND 1 (25 μM) or control (0.5% DMSO). CBP (AC-26, a generous gift from Dr. David Livingston, Harvard University, Boston, Mass.) or p300 (C-20, Santa Cruz Biotechnology Inc.) specific antibodies were used to evaluate the promoter occupancy by CBP or p300 in presence of COMPOUND 1 or control (DMSO) treatment.
Formaldehyde cross-linking and chromatin immunoprecipitation assays of SW480 cells were performed as described previously (Barlev et al., “Acetylation of p53 activates transcription through recruitment of coactivators/histone acetyltransferases,” Mol. Cell 8:1243-54 (2001); El-Osta et al., “Analysis of chromatin-immunopurified MeCP2-associated fragments,” Biochem. Biophys. Res. Commun. 289:733-37 (2001); Shang et al., “Formation of the androgen receptor transcription Complex,” Mol. Cell 9:601-10 (2002)). […]

[2] = system: SW480 cells; experiment: FACS cell cycle analysis (propidium iodide), SW480 cells; assay type: cell-based, human; conditions: 25 μM, 24 hours
Protocol: FIG. 6. • A. COMPOUND 1 arrests cells in G1. FACS analysis was performed on SW480 (lower panel) and HCT116 (upper panel) cells treated for 24 hours with either COMPOUND 1 (25 μM) (right) or control (0.5% DMSO (left). 5.5×10^6 cells were fixed and stained with propidium iodide (PI). G0/G1, S, and G2/M are indicated by arrows. • B. COMPOUND 1 selectively activates caspases in colon carcinoma cell lines. SW480 and HCT116 (left graph) cells (10^5) along with the normal colonocytes, CCD18Co (right graph) were treated with either control (0.5% DMSO) or COMPOUND 1 (25 μM). 24 hours post treatment, cells were lysed and the caspase-3/7 enzymatic activities were measured. Relative fluorescence units (RFU) were calculated by subtracting the unit values of the blank (control, without cells) from the treated samples (COMPOUND 1 or control) and plotted.
For FACS analysis, approx. 5×10^6 cells from PNRI-treated or vehicle-treated were fixed with 70% chilled ethanol and stored at −20° C. for at least 30 minutes. […] 10,000 stained cells for each sample were acquired using Beckman Coulter EPICS XL-MCL Flow Cytometry and the percentage of cells in different phase of the cell cycle was determined by Expo32 ADC software (Coulter Corporation, Miami, Fla., 33196). […]

## O=C1C(Cc2ccc(O)cc2)N2C(=O)CCN(C(=O)NCc3ccccc3)C2CN1Cc1cccc2ccccc12 (stereo not drawn) [COMPOUND 1]
[1]
  Association of CBP with the c-myc promoter: completely and selectively blocks
  Level of p300 associated with the c-myc promoter: increased
[2]
  Cell cycle distribution (DNA content by FACS): increased accumulation at G1/S-phase
